Measured values reported in patent publication US11458189B2, “Cytoprotective drugs” (BALMES TRANSPLANTATION, priority 2017, dated 2022).
Starred links: 1 amine or outer side, 2 acyl side, 3 side chain; linkers in the order of their positions; H or OH if unused. Positions of bridges follow the written chain, without caps; N, C: chain ends. Non-standard residues stand in square brackets, D forms with d. Residues, ends and D or L forms follow the SMILES beside them. ξ: configuration not given here. *: point of attachment. hTyr(3S-OH,4S-OH,3'-OSO3H) = N[C@H](C(=O)O)[C@H](O)[C@@H](O)c1ccc(O)c(OS(=O)(=O)O)c1; pTerphenylCO(4''-OnC5H11) = CCCCCOc1ccc(-c2ccc(-c3ccc(C(=O)*)cc3)cc2)cc1; Orn(4R-OH,5R-OH) = O=C([C@H](C[C@@H](O)[C@@H](O)N[*:3])N[*:1])[*:2]; hTyr(3S-OH,4S-OH) = N[C@H](C(=O)O)[C@H](O)[C@@H](O)c1ccc(O)cc1; Pro(3S-OH,4S-Me) = C[C@H]1CN[C@H](C(=O)O)[C@H]1O; X1 = CCCCCOc1ccc(-c2cc(-c3ccc(C(=O)*)cc3)no2)cc1; Gln(3R-OH) = NC(=O)C[C@@H](O)[C@H](N)C(=O)O; ξPro(4R-OH) = O=C(O)C1C[C@@H](O)CN1; Hyp = O=C(O)[C@@H]1C[C@@H](O)CN1

Tested on: Sprague Dawley rats
Experiment: Survival in acute renal failure model (unilateral renal ischemia-reperfusion with contralateral nephrectomy)
Assay type: in vivo, rat
Details: up to 7 days after reperfusion, control group 29%
Protocol: The protocol is similar to the one described by Narayan P et al, Am J Physiol Renal Physiol, 311(2):F352-61, 2016 and was approved by an ethics committee. In summary, general anesthesia is induced in male Sprague Dawley rats (250-300 g) using sodium pentobarbital (60 mg/kg, ip) instead of ketamine/xylazine in the protocol described by Narayan P et al, Am J Physiol Renal Physiol, 311 (2): F352-61, 2016. A skin incision is made on the dorsal surface and the left kidney is exposed by incisions on the flank. The left renal pedicle is then isolated and clamped for 60 minutes using atraumatic vascular clamps. The kidneys are replaced in the abdominal cavity to maintain temperature and the incision is covered with gauze soaked in 0.9% saline. After the ischemia time (60 minutes), the clamps are released to begin reperfusion. Reperfusion is monitored (kidney color change) for 1 to 2 minutes and physiological saline (1 mL) is administered to prevent dehydration. Next, a right kidney nephrectomy is performed and the incisions are closed with sutures. The animals are kept at approximately 37° C. using a thermoregulated system during the operation. Buprenorphine (0.2 mg/kg sc) is administered before the animals are returned to their cages and once a day until 4 days after reperfusion. […]
The compounds Micafungin (0.25 mg/kg), Anidulafungin (0.35 mg/kg) or the combination of the compounds Micafungin (0.25 mg/kg) and Allopurinol (3 mg/kg) are administered solubilized in physiological saline as a single intravenous injection into the tail vein 60 (±15) minutes before the onset of ischemia. The volume of administration of the compounds is determined on the basis of the body weight (2 mL/kg) of each animal. […]
For each experiment the curve of the number of surviving animals versus the number of days post-ischemia-reperfusion (Kaplan-Meier curve) is shown. The x-axis is graduated from the first day =0 to the seventh day =6 The y-axis is graduated from 0% to 100% of the initial population of the analyzed group. […]

Compound	Surviving animals at end of Kaplan-Meier curve (% of initial population of the group) (Micafungin 0.25 mg/kg single iv injection 60 min before ischemia) [%]	Surviving animals at end of Kaplan-Meier curve (% of initial population of the group) (Anidulafungin 0.35 mg/kg single iv injection 60 min before ischemia) [%]
CCCCCOc1ccc(-c2cc(-c3ccc(C(=O)N[C@H]4C[C@@H](O)[C@@H](O)NC(=O)[C@@H]5[C@@H](O)[C@@H](C)CN5C(=O)[C@H]([C@H](O)CC(N)=O)NC(=O)[C@H]([C@H](O)[C@@H](O)c5ccc(O)c(OS(=O)(=O)O)c5)NC(=O)[C@@H]5C[C@@H](O)CN5C(=O)[C@H]([C@@H](C)O)NC4=O)cc3)no2)cc1 [Micafungin, {5-[(1S,2S)-2-[(3S,6S,9S,11R,15S,18S,20R,21R,24S,25S,26S)-3-[(1R)-2-carbamoyl-1-hydroxyethyl]-11,20,21,25-tetrahydroxy-15-[(1R)-1-hydroxyethyl]-26-methyl-2,5,8,14,17,23-hexaoxo-18-[(4-{5-[4-(pentyloxy)phenyl]-1,2-oxazol-3-yl}benzene)amido]-1,4,7,13,16,22-hexaazatricyclo[22.3.0.0]heptacosan-6-yl]-1,2-dihydroxyethyl]-2-hydroxyphenyl}oxidanesulfonic acid] (X1-[Orn(4R-OH,5R-OH)]T[Hyp][hTyr(3S-OH,4S-OH,3'-OSO3H)][Gln(3R-OH)][Pro(3S-OH,4S-Me)]; lactam 1-C)	67	
CCCCCOc1ccc(-c2ccc(-c3ccc(C(=O)N[C@H]4C[C@@H](O)[C@@H](O)NC(=O)[C@@H]5[C@@H](O)[C@@H](C)CN5C(=O)[C@H]([C@@H](C)O)NC(=O)[C@H]([C@H](O)[C@@H](O)c5ccc(O)cc5)NC(=O)C5C[C@@H](O)CN5C(=O)[C@H]([C@@H](C)O)NC4=O)cc3)cc2)cc1 (stereo partly drawn) [Anidulafungin] ({pTerphenylCO(4''-OnC5H11)}-[Orn(4R-OH,5R-OH)]T[ξPro(4R-OH)][hTyr(3S-OH,4S-OH)]T[Pro(3S-OH,4S-Me)]; lactam 1-C)		75
